In patent US20020052353A1, “Methods of prevention and treatment of ischemic damage” (priority 1999, published 2002):

Key:
[1] = test system: ischemia induced by middle cerebral artery occlusion (MCAO); test: Pretreatment with estrogen compounds before middle cerebral artery occlusion (MCAO) in ovariectomized rats: mortality and ischemic area; assay type: in vivo, rat; settings: for reduction of ischemic area: 5 mm Silastic tube 24 h prior to MCAO
[2] = test system: Primary rat brain capillary endothelial cells (BCEC); test: Brain capillary endothelial cell (BCEC) mortality under hypoglycemia, Trypan blue; settings: 2 nM
Protocol: The control consists of the ethanol vehicle only. The glucose concentrations in the cell media were adjusted from 20 mg % to 200 mg % by adding appropriate amount of D-(+)-glucose to the glucose-free media. BCEC were incubated for 24 hours (a) and 48 hours (b). Trypan blue staining was used to distinguish live cells from dead cells. Two cell countings at two different hemacytometer squares were averaged. Mean±SEM are depicted (n=8-12). *p<0.05 vs. corresponding vehicle control.
(§1) Primary rat brain capillary endothelial cells (BCEC) cultures were prepared following the method of Goldstein, J. Neurochemistry vol.
Hypoglycemia experiments were undertaken. […] The glucose concentration of the culture media was then adjusted from 20 mg % to 200 mg % by adding appropriate amount of D-(+)-glucose to the glucose-free media and monitored by Glucose and L-Lactate Analyzer (YSI model 2300 STAT plus, YSI, Inc., Yellow Springs, Ohio). The hypoglycemic cultures were maintained for 24 hours or 48 hours prior to staining with Trypan blue.
(§2) Cell mortality was counted using Trypan blue staining method. Cell death percentage was calculated as dead cell/alive cell ×100%.
(§3) Statistical treatment included two-way analysis of variance applied to determine the significance of the difference among the experimental groups. Kruskal-Wallis nonparametric analysis was used for data presented as percentage. […] P<0.05 was considered significant.

[3] = test system: ischemia induced by middle cerebral artery occlusion (MCAO); test: Post-treatment at 0.5, 1, 2, 3 and 4 hours after MCAO: ischemic lesion volume by TTC staining; assay type: in vivo, rat; settings: iv 100 μg/kg HPCD-complexed 17β-estradiol plus Silastic pellet at 0.5, 1, 2 or 3 hours post-occlusion; 48 hours after MCAO
[4] = test system: Primary rat brain capillary endothelial cells (BCEC); test: BCEC mortality under combined anoxia and hypoglycemia, Trypan blue; settings: 2 nM; 100 mg % glucose; anoxia 2 hours
Protocol: Cell media contained 200 mg % or 100 mg % glucose. Culture dishes containing BCEC were placed in either an incubator or a nitrogen filled chamber for two hours. Trypan blue staining was used to distinguish live cells from dead cells. Two cell countings at two different hemacytometer squares were averaged. Mean ±SEM are depicted (n=8.12). *<0.05 vs. corresponding vehicle control.
as §1
Nitrogen gas was influxed to replace the oxygen inside the chamber. The chamber was sealed and placed in the incubator for four hours for nonhypoglycemic cultures and 2 hours for hypoglycemic cultures.
as §2, §3

| Structure (SMILES) | reduction of ischemic area ([1]; slice C) [%] | reduction of ischemic area ([1]; slice D) [%] | reduction of ischemic area ([1]; slice E) [%] | protective effect in tissue slices (FIG. 3) ([1]; sustained subcutaneous delivery initiated 24 hours prior to ischemic event, slices A-E) | cell loss saved compared with control ([2]; media glucose 20 mg %) [%] | cell loss saved compared with control ([2]; media glucose 40 mg %) [%] | cell loss saved compared with control ([2]; media glucose 100 mg %) [%] | protection, ischemic lesion volume (TTC staining) [3] | protection from cumulative effect of hypoglycemia and anoxia [4] | ischemic area, percent of cross-sectional area of brain sections ([1]; pretreatment 24 h prior to MCAO, 3 brain slices, sham 25.6±5.7%) [%] | protective effect in tissue slices (FIG. 2) ([1]; sc injection two hours prior to ischemic event, slices A-D) |
| --- | --- | --- | --- | --- | --- | --- | --- | --- | --- | --- | --- |
| C[C@]12CC[C@@H]3c4ccc(O)cc4CC[C@H]3[C@@H]1CC[C@H]2O [17α-estradiol] | 55 | 66 | 81 | significant protective effect |  |  |  |  |  |  |  |
| C[C@]12CC[C@@H]3c4ccc(O)cc4CC[C@H]3[C@@H]1CC[C@@H]2O [17β-estradiol] |  |  |  |  | 23 | 28.4 | 35.9 | significant protection | effective in protecting | 9.8±4.0 | significant protective effect |
